Results as given in ChEMBL document CHEMBL1159359, “A new phytotoxic nonenolide from Phoma herbarum” (J Nat Prod, 2003).
Calls of active or inactive are those of the source. The rule behind the calls is not given here.

Legend:
[1] = Inhibition of bovine brain calmodulin-dependent cyclic nucleotide phosphodiesterase after 30 min; set-up: species or system Bos taurus
Calmodulin (Bos taurus) = Calmodulin (Bos taurus) (UniProt P62157); test: Binding affinity to bovine brain calmodulin assessed as decrease in electrophoretic mobility at 0.033 ug/ml for 1.5 hrs by SDS-PAGE in presence of Ca2+ ions
[2] = test system: Amaranthus hypochondriacus; test: Phytotoxicity against Amaranthus hypochondriacus seedlings assessed as inhibition of radical growth at 28 degC by petri dish assay; assay type: functional, organism-based

Structure (SMILES)	IC50 [1] [µM]	Activity (Calmodulin (Bos taurus))	IC50 [2] [µM]
CN(C)CCCN1c2ccccc2Sc2ccc(Cl)cc21 [CHLORPROMAZINE]	9.8		
CCC[C@@H]1C[C@@H](O)/C=C/CCCC(=O)O1 [HERBARUMIN III]		Active	20
O=C(O)COc1ccc(Cl)cc1Cl [2,4-DICHLOROPHENOXYACETIC ACID]			200

The next lines start with results.

IC50 [1] [µM]	Activity (Calmodulin (Bos taurus))	Structure (SMILES)	IC50 [2] [µM]
6.6	Active	CCC[C@H]1OC(=O)[C@H](O)CC/C=C/[C@H](O)[C@@H]1O [HERBARUMIN II]	
14.2	Active	CCC[C@H]1OC(=O)CCC/C=C/[C@H](O)[C@@H]1O [HERBARUMIN I]	
